Reference: patent publication US10344279B2, “Methods for the prevention and the treatment of extracapillary glomerulonephritis” (INSERM (Institut National de la Sante et de la Recherche …, priority 2014, dated 2019)
Entries after “also recorded” stand apart in the source; their conditions may differ.

B1: HB-EGF: heparin-binding epidermal growth factor-like growth factor, EGFR ligand (Preprotech) (protein, UniProt Q99075 63-148, looked up)
Heparin-binding EGF-like …: DLQEADLDLLRVTLSSKPQALATPNKEEHGKRKKKGKGLGKKRDPCLRKYKDFCIHGECKYVKELRAPSCICHPGYHGERCHGLSL

Legend:
phospho-STAT3 (Tyr705) [1] = assay: Western blot of phospho-STAT3 in primary culture of podocytes; assay type: cell-based, mouse; details: 16 hours; AG1478 1 μM, anti-mIL-6 antibody 10 μg/mL, HB-EGF 10 ng/mL
Procedure: After 4 days of primary culture, podocytes were trypsinized then plated into μ-Dish 35 mm high with Culture-Insert (Ibidi). Ibidi's wounding inserts were used for cell migration studies. The coverage of the 500-μm gap was assessed after 12 hours of culture and podocyte migration area was quantified using ImageJ software. The effects of HB-EGF (10 ng/mL, Preprotech) or AG1478 (1 μM, Calbiochem) or anti-mIL-6 monoclonal antibody MP5-20F3 (10 μg/mL, eBiosciences) or Stattic (2 μM, Calbiochem) on differentiated podocytes was applied during 16 hours. After stimulation, podocytes were scrapped in Phosphosafe buffer for protein extraction or in RLT buffer for total RNA extraction.
After extraction from glomeruli or podocytes with lysis buffer, proteins were quantified by BCA protein assay kit (iNtRON Biotechnology). Samples were resolved on 4-12% Bis-Tris Criterion XT gels (Bio-Rad) then transferred to a polyvinylidene difloride membrane. Membranes were incubated with the appropriate primary antibodies: rabbit anti-phospho-EGFR (Tyr1068) (Cell Signaling Technology), rabbit anti-phospho-STAT3 (Tyr705) (Cell Signaling Technology), goat anti-p57 (Santa Cruz Biotechnology). Protein loading was monitored by using the rat anti-tubulin antibody (Abeam). […] Densitometric analysis with ImageJ software was used for quantification.

phospho-STAT3 (Tyr705) [2] = assay: Western blot of phospho-STAT3 in glomeruli / kidney cortex of NTS-challenged mice; assay type: in vivo; details: erlotinib 10 mg/kg/day; NTS-challenged mice
Procedure: Podocyte-specific disruption of Stat3 mice were generated by crossing podocin-Cre positive mice (63) with Stat3 floxed mice (64) on C57BL6/J background. Their age-matched littermates with no deletion of Stat3 in any cells are considered as controls. […] Stattic (25 mg/kg) was administered in i.p. way every other day for 10 days. 10 weeks old 129S2/SvPasCr male mice were randomly treated with Stattic and were compared to vehicle-treated (DMSO) littermates.
The glomerulonephritis was induced on male mice (10-12 weeks of age) by intravenous injection of 15 μL of sheep anti-glomerular basement membrane (GBM) nephrotoxic serum (NTS), which was diluted with 85 μL of sterile phosphate buffer solution. Serum injections were repeated twice (on days 2 and 3) at 6 μL/g of body weight and 7 μL/g respectively.
Mouse kidneys were extracted, minced, and digested in 2 mg/mL collagenase I solution (Gibco) in RPMI 1640 (Invitrogen) at 37° C. for 3 minutes, then filtered through a 70-μm cell strainer and one more through a 40-μm cell strainer. […] Podocyte outgrowth area was quantified at day 4 using ImageJ software.
After extraction from glomeruli or podocytes with lysis buffer, proteins were quantified by BCA protein assay kit (iNtRON Biotechnology). […] Protein loading was monitored by using the rat anti-tubulin antibody (Abeam). […] Densitometric analysis with ImageJ software was used for quantification.

phospho-EGFR (Tyr1068) = assay: Western blot of phospho-EGFR in kidney cortex of NTS-challenged mice; assay type: in vivo; details: erlotinib 10 mg/kg/day
Procedure: After extraction from glomeruli or podocytes with lysis buffer, proteins were quantified by BCA protein assay kit (iNtRON Biotechnology). […] Membranes were incubated with the appropriate primary antibodies: rabbit anti-phospho-EGFR (Tyr1068) (Cell Signaling Technology), rabbit anti-phospho-STAT3 (Tyr705) (Cell Signaling Technology), goat anti-p57 (Santa Cruz Biotechnology). Protein loading was monitored by using the rat anti-tubulin antibody (Abeam). Secondary antibodies were donkey-anti rabbit HRP and donkey-anti rabbit HRP (GE Healthcare Life Sciences). […] Densitometric analysis with ImageJ software was used for quantification.

Molecule | STAT3 phosphorylation (Tyr705) in cultured primary podocytes (phospho-STAT3 (Tyr705) [1]) | STAT3 phosphorylation in podocytes (phospho-STAT3 (Tyr705) [2]) | EGFR phosphorylation in the kidney cortex (phospho-EGFR (Tyr1068))
COc1cc2ncnc(Nc3cccc(Cl)c3)c2cc1OC [AG1478] | blunted; also recorded: decreased | – | –
C#Cc1cccc(Nc2ncnc3cc(OCCOC)c(OCCOC)cc23)c1 [erlotinib] | – | blunted | efficiently blocked
B1 | enhanced | – | –
